The source made the active and inactive calls. The rule behind the calls is not given here.
tested on: UPR adaptive arm reporter cells, luciferase luminescence; experiment: adaptive unfolded protein response reporter activation – cell-based, luciferase luminescence, dose response (AID 489032)

| Compound | EC50 |
| --- | --- |
| CN(C)CCCNC(=O)c1ccc(-c2nc(-c3ccc(Cl)cc3)cs2)cc1 | > 80 µM (inactive) |
| Cc1nn(-c2ccccc2)c(C)c1/C=N/NC(=O)CSc1nc2ccccc2c(=O)n1-c1ccc(Br)cc1 | 35.7 µM (inactive) |
| Cc1ccc(-n2nc3c(N4CCC(C(=O)NCCc5ccccc5C)CC4)nnc(C)c3c2C)cc1 | > 80 µM (inactive) |
| COc1cc(SC#N)ccc1N=Cc1c(C)[nH]n(-c2ccc(C)c(C)c2)c1=O | > 80 µM (inactive) |
| CCc1ccc2[nH]c3nc(SCc4nnc(-c5ccc(C)cc5)o4)nnc3c2c1 | 39.9 µM (inactive) |
| CCc1ccc(N2C(=O)NC(=O)/C(=C\c3cccn3CCOc3ccc(C(C)C)cc3)C2=O)cc1 | > 80 µM (inactive) |
| CCOC(=O)C1=C(C)N=c2s/c(=C3/C(=O)Nc4ccccc43)c(=O)n2C1c1ccc(C)cc1 (stereo not drawn) | > 80 µM (inactive) |
| Cc1[nH]c2ccccc2c1/C=C/c1nc2ccccc2c(=O)n1-c1ccc([N+](=O)[O-])cc1 | > 80 µM (inactive) |
| CC(C)c1ccc(C2C3=C(COC3=O)Nc3cc4c(cc32)OCO4)cc1 (stereo not drawn) | 48.9 µM (inactive) |
| CCc1ccc(NC(=O)C(CC)Sc2nc3cc4c(cc3c(=O)n2Cc2ccco2)OCO4)cc1 (stereo not drawn) | > 80 µM (inactive) |
| OCCNc1nc(Nc2ccc(Cl)c(Cl)c2)nc2ccccc12 | > 80 µM (inactive) |
| O=CC1=C(c2ccccc2)Oc2ccccc2O1 | > 80 µM (inactive) |
| Cc1cc(C)cc(NC(=O)/C(C#N)=C/c2cn(CC(=O)NCc3ccco3)c3ccccc23)c1 | 9.17 µM |
| N#Cc1c(-c2ccc3c(c2)OCO3)ccn2nc(-c3cccc(C(F)(F)F)c3)nc12 | > 80 µM (inactive) |
| COc1ccc(C2CC(c3c(-c4ccccc4)c4cc(Cl)ccc4[nH]c3=O)=NN2S(C)(=O)=O)cc1 (stereo not drawn) | > 80 µM (inactive) |
| Cc1ccnc(N/C=C(\C#N)c2nc(-c3cccc(Br)c3)cs2)c1 | 20.7 µM (inactive) |
| CCn1cc(C(=O)NC(=S)Nc2sc3c(c2C(=O)OC)CCCCCC3)cn1 | > 80 µM (inactive) |
| CN(C)CC(CCC(CN(C)C)C(O)(c1ccccc1)c1ccccc1)C(O)(c1ccccc1)c1ccccc1 (stereo not drawn) | > 80 µM (inactive) |
| N#C/C(=C\c1ccc(N2CCCC2)c([N+](=O)[O-])c1)c1nc2ccccc2[nH]1 | > 80 µM (inactive) |
| CCc1ccc(-n2c(SCC(=O)c3ccc4c(c3)NC(=O)CO4)nc3ccccc3c2=O)cc1 | > 80 µM (inactive) |
| COc1cccc(/C=N/Nc2ccc([N+](=O)[O-])cn2)c1O | > 80 µM (inactive) |
| Cc1ccc2nc(-c3ccc(NC(=S)NC4CC(C)(C)NC(C)(C)C4)cc3)sc2c1 | > 80 µM (inactive) |

| Compound | EC50 |
| --- | --- |
| OCCCn1c(C2CCCN2c2nc(-c3ccc(F)cc3)cs2)nc2cc(Cl)c(N3CCCCC3)cc21 (stereo not drawn) | > 80 µM (inactive) |
| Cn1c(/C=C/c2ccc(Cl)cc2Cl)c([N+](=O)[O-])c(=O)n(C)c1=O | > 80 µM (inactive) |
| Cc1cccc(N2CCN(C(=S)Nc3ccc4nc(N5CCN(C)CC5)cc(C)c4c3)CC2C)c1 (stereo not drawn) | > 80 µM (inactive) |
| CCCCNc1c(-c2ccc(SC(C)CC)cc2)nc2cnccn12 (stereo not drawn) | > 80 µM (inactive) |
| COc1ccc(Cn2c(SCc3ccccc3C)nc3cc(OC)c(OC)cc3c2=N)cc1 | 15.5 µM |
| NCCc1c(-c2ccccc2)n(-c2ccccc2)c2ccccc12 | > 80 µM (inactive) |
| CCOc1cc2c3c(c1)C(C)=CC(C)(C)N3C(=O)C2=O | 54.6 µM (inactive) |
| Cc1c(CCOC(=O)C23CC4(C)CC(C)(CC(C)(C4)C2)C3)sc[n+]1CC(=O)c1ccccc1 | > 80 µM (inactive) |
| Cc1ccc(NC(=O)CSc2nc3ccccc3c3nc4ccccc4n23)cc1 | 7.77 µM |
| Cc1cc(NC(=O)CSc2nc3cc(Cl)ccc3c(=O)n2Cc2ccco2)no1 | > 80 µM (inactive) |
| COc1ccc(C(=O)/C=C/c2ccc(O)cc2)c(O)c1C/C=C(\C)CCC=C(C)C | > 80 µM (inactive) |
| Cc1cccc2cc(C(c3nnnn3Cc3ccccc3)N3CCCc4ccccc43)c(=O)[nH]c12 (stereo not drawn) | 32.5 µM (inactive) |
| COc1ccc2[nH]c3c(c2c1)CCN1C(=O)C(CC(=O)NC/C=C(\C)CCC=C(C)C)C[C@H](C(=O)N2CCOCC2)[C@@]31CCC1CCCC1 (stereo partly drawn) | > 80 µM (inactive) |
| COc1cc([C@@H]2c3cc4c(cc3[C@@H](O)[C@H]3COC(=O)[C@H]23)OCO4)cc(OC)c1O[Si](C)(C)C(C)(C)C | > 80 µM (inactive) |
| CCCCC1CCC(C(=O)N(CC(C)C)c2c(N)n(CCCC)c(=O)[nH]c2=O)CC1 (stereo not drawn) | > 80 µM (inactive) |
| COC(=O)c1sccc1NC(=O)c1cc(-c2cccc(C)c2)nc2ccccc12 | > 80 µM (inactive) |
| Cc1ccc2nc(/C(C#N)=C/c3ccc(O)c(O)c3)[nH]c2c1 | > 80 µM (inactive) |
| O=c1cc(C(Cl)(Cl)Cl)oc2c1ccc1ccccc12 | 18.1 µM |
| COc1ccc(/C=N/Nc2nnc(-c3ccccc3)c(=O)[nH]2)cc1 | 19.8 µM |
| CCOC(=O)c1ccc(-c2ccc(/C=N/NC(=O)CN(c3cccc(C)c3)S(C)(=O)=O)o2)cc1 | 18.2 µM |
| OCCCn1c(C2CCCN2c2nc(-c3ccc(Cl)cc3)cs2)nc2cc(Cl)c(N3CCCCC3)cc21 (stereo not drawn) | > 80 µM (inactive) |
| Cc1cc(C)c2sc(N(CCCN(C)C)C(=O)c3ccc(S(=O)(=O)N4CCCc5ccccc54)cc3)nc2c1 | > 80 µM (inactive) |

| Compound | EC50 |
| --- | --- |
| CN(C)CCCN(C(=O)c1cc(-c2cccs2)nc2ccccc12)c1nc2ccc(F)cc2s1 | > 80 µM (inactive) |
| COC(=O)c1cc([N+](=O)[O-])c(-n2ccnc2)c([N+](=O)[O-])c1 | > 80 µM (inactive) |
| CC(C)CC(NC(=O)c1ccc(Cl)cc1)C(=O)OCC(=O)c1ccc2c(c1)NC(=O)CO2 (stereo not drawn) | > 80 µM (inactive) |
| CCN(CC)c1ccc(C(=O)OCC(=O)Nc2cc3oc4ccccc4c3cc2OC)cc1 | 25.8 µM (inactive) |
| COc1ccccc1CCNC(=O)C1CCN(c2nnc(C)c3c(C)n(-c4ccc(C)cc4)nc23)CC1 | 17.8 µM |
| Nc1cccc(-c2nc3cc(S(=O)(=O)c4ccc5oc(-c6cccc(N)c6)nc5c4)ccc3o2)c1 | 24.1 µM (inactive) |
| COc1ccc(-c2csc(NC(=S)NC(=O)/C=C/c3ccco3)n2)cc1Br | 41.9 µM (inactive) |
| COc1ccc(-c2cc(-c3ccccc3)c(C#N)c(S(C)(=O)=O)n2)cc1 | 4.88 µM |
| Cc1cc(NC(=O)c2cc(-c3ccncc3)nc3c(C)cccc23)no1 | 17.7 µM |
| CN(C)CCCn1cnc2c(c1=N)C(c1ccccc1)c1ccc3ccccc3c1O2 (stereo not drawn) | > 80 µM (inactive) |
| Cc1cccc2c1Sc1ccc(Cl)cc1CC2N1CCNCC1 (stereo not drawn) | > 80 µM (inactive) |
| NC1=NC[C@@H](CC2CCCCC2)N1CCc1cc(C(F)(F)F)cc(C(F)(F)F)c1 | > 80 µM (inactive) |
| CCCOC(=O)c1cccc(Nc2nc(-c3cccnc3)nc3ccccc23)c1 | > 80 µM (inactive) |
| CCOc1ccc(NC(=S)NC(=O)/C=C/c2ccc(OC)c(OC)c2)c([N+](=O)[O-])c1 | > 80 µM (inactive) |
| CCc1ccc(-c2cc(C(F)(F)F)n3nc(C(=O)Nc4cnn(Cc5ccc(C)cc5)c4)cc3n2)s1 | 4.24 µM |
| CCOC(=O)c1cc(NC(=O)c2ccc(Cl)cc2)c(=O)n2c1oc1ccc(Cl)cc12 | > 80 µM (inactive) |
| CC(C)(C)c1csc(NC(=O)c2ccc(Cl)s2)n1 | > 80 µM (inactive) |
| COc1cccc(-n2c(SCC(=O)N3CCc4ccccc43)nnc2-c2c[nH]c3ccccc23)c1 | > 80 µM (inactive) |
| COc1ccc(OC)c(NC(=O)c2oc3ccccc3c2NC(=O)C2CC2)c1 | > 80 µM (inactive) |
| CN(C)S(=O)(=O)c1ccc(N2CCCC2)c(C(=O)Nc2nccs2)c1 | 50 µM (inactive) |
| Cc1nc2ccccc2n1-c1nc(-c2ccco2)cc(C(F)(F)F)n1 | > 80 µM (inactive) |
| COc1cc([N+](=O)[O-])cc(/C=N/NC(=O)c2ccc(NC(=O)c3ccc(C)cc3)cc2)c1O | > 80 µM (inactive) |

| Compound | EC50 |
| --- | --- |
| CC1(C)C=Cc2c(c3c(c4c(=O)c(-c5ccc(O)cc5)coc24)OC(C)(C)CC3)O1 | > 80 µM (inactive) |
| COc1ccc(OC)c(-c2nnc3n2N=C(c2ccc(OC)c(OC)c2)CS3)c1 | > 80 µM (inactive) |
| CN(C)CCCN(C(=O)c1ccc(S(=O)(=O)N2CCc3ccccc3C2)cc1)c1nc2ccc(F)cc2s1 | > 80 µM (inactive) |
| CC(C)(C)c1ccc(C(=O)Nc2ccc(O)c3c(=O)cc(-c4cccc(Cl)c4)oc23)cc1 | > 80 µM (inactive) |
| COc1cc(NC(=O)c2ccc(C)cc2C)ccc1NC(=O)c1cc2ccccc2o1 | > 80 µM (inactive) |
| Oc1ccc(-c2nc3ccc4ccccc4c3c3c2CCC3)cc1O | 28.4 µM (inactive) |
| COC(=O)c1ccc(COc2ccccc2/C=C(\C#N)C(=O)Nc2c(C)cccc2C)cc1 | > 80 µM (inactive) |
| COc1ccc(-c2sc3ccccc3c2-c2ccc(OCCN(C)C)cc2)cc1 | > 80 µM (inactive) |
| O=C(NCc1ccccc1Cl)c1cccc2c1C(=O)c1ccc(-c3ccc(OC(F)(F)F)cc3)cc1S2(=O)=O | > 80 µM (inactive) |
| CC(=O)Nc1ccccc1Sc1ccc2c3c(cccc13)C(=O)N(c1ccc(C)cc1)C2=O | > 80 µM (inactive) |
| CC(=O)c1cccc(Nc2nc(-c3cccc([N+](=O)[O-])c3)cs2)c1 | > 80 µM (inactive) |
| CCCCNC(=O)c1ccc(Cn2c(=S)[nH]c3c([nH]c4ccc(OC)cc43)c2=O)cc1 | > 80 µM (inactive) |
| CCOC(=S)SCC(=O)Nc1nc(-c2ccc(Br)cc2)cs1 | > 80 µM (inactive) |
| CCc1nc(C)cn1S(=O)(=O)c1cc([N+](=O)[O-])ccc1Cl | > 80 µM (inactive) |
| COc1ccc2[nH]c3nc(SCc4nnc(-c5ccc(C)cc5)o4)nnc3c2c1 | 27.8 µM (inactive) |
| COc1ccc(NC(=O)c2cc3c(=O)n(C)c4ccccc4c3n2C)cc1Cl | > 80 µM (inactive) |
| CCOC(=O)C1=C(O)/C(=C/c2cn(CC(=O)NCC3CCCO3)c3ccccc23)SC1=Nc1ccc(C)cc1 (stereo not drawn) | > 80 µM (inactive) |
| CCCn1c(Nc2nc3ccccc3n2C)nc2ccccc21 | > 80 µM (inactive) |
| COc1cc2[nH]c3c(N4CCN(c5ccc(Cl)cc5)CC4)ncnc3c2cc1OC | > 80 µM (inactive) |
| COc1ccc([N+](=O)[O-])cc1COc1ccc2c(-c3ccccc3)cc(=O)oc2c1 | > 80 µM (inactive) |
| Clc1ccc(C2=Nn3c(nnc3-c3cc(-c4ccccc4)n[nH]3)SC2)cc1 | > 80 µM (inactive) |
| Cc1ccc(Nc2nc3ccc(Cl)cc3n3cnnc23)cc1F | > 80 µM (inactive) |

Reference: PubChem BioAssay AID489032 (Sanford-Burnham Center for Chemical Genomics, 2010)
